According to US4539208A, “Combination of thienamycin-type antibiotics with dipeptidase inhibitors” (Merck & Co., Inc., priority 1981, dated 1985):
Blank lines part the entries; values can stand above or below the compound they belong to.

Experiments:
[1] = target: T1, renal dipeptidase (E.C.3.4.13.11) (Sus scrofa, UniProt P22412); test: Inhibition of GDP (glycyldehydrophenylalanine) hydrolysis by solubilized renal dipeptidase; assay type: biochemical, hog (pig) kidney
T1 construct: solubilized preparation of dipeptidase isolated from hog kidneys; from tissue; host or cells: hog (pig) kidney
T1 sequence (P22412 17-409): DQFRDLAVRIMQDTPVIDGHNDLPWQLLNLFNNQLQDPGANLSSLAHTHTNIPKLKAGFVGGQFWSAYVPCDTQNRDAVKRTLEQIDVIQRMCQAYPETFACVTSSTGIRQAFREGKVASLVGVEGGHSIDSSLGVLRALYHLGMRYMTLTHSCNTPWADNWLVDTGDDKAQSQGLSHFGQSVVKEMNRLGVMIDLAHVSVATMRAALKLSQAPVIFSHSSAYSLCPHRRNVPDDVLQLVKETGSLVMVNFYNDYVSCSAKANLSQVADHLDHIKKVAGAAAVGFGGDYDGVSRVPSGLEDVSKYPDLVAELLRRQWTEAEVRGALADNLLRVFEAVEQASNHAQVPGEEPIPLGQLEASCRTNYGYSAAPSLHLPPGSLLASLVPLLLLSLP
Method: This measured the ability of compounds to inhibit hydrolysis of glycyldehydrophenylalanine (GDP) by a solubilized preparation of dipeptidase isolated from hog kidneys. The procedure is as follows: to a 1 ml. system containing 50 mM "MOPS" (3-(N-morpholino)propanesulfonic acid) buffer, pH 7.1, is added 5 μg of lyophilized enzyme, and the test compound at a final concentration of 0.1 mM. After a five minute incubation at 37° C., GDP is added to a final concentration of 0.05 mM. Incubation is continued for 10 minutes, at 37° C. and hydrolysis of GDP is measured by the change in optical density with time at 275 nm. Inhibition of the enzyme is gauged by comparison to a standard run containing no inhibitor and is expressed as the inhibitor binding constant, Ki.
A 1 ml. system of 50 mM "MOPS" buffer, pH 7.1, is used. To this is added 5 μg of the pig renal enzyme and an amount of the test compound to bring its final concentration to 0.1 mM. After a five minute incubation at 37° C., an amount of GDP is added to bring its final concentration to 0.05 mM. The system is again incubated for 10 minutes, at 37° C. Hydrolysis of GDP is measured by its change in optical density with time at 275 nm. Inhibition of the enzyme is gauged by comparison to a standard run containing no inhibitor and is presented as percent inhibition.

Staphalococcus aureus = test: Systemic efficacy of thienamycin with co-administered inhibitor, Staphylococcus aureus infection in mouse; assay type: in vivo; conditions: coadministered with thienamycin
[2] = 10^-4 M inhibitor, GDP 0.05 mM, pH 7.1, 37° C.

Structure (SMILES): C/C=C(\NC(=O)CC(C)CC(C)(C)C)C(=O)O (stereo not shown) [Compound 5]
inhibition at 100 µM [1, 2]: 81%

Structure (SMILES): C/C=C(\NC(=O)C1C(C)C1C)C(=O)O (stereo not shown) [Compound 6]
inhibition at 100 µM [1, 2]: 83%

Structure (SMILES): C/C=C(\NC(=O)CCCCC)C(=O)O [Compound 28, Z-2-hexanamido-2-butenoic acid]
Ki [1]: 39000 nM | inhibition at 100 µM [1, 2]: 54%

Structure (SMILES): C/C=C(\NC(=O)C1CC1(C)C)C(=O)O (racemic) [Compound 2, Z-2-(2,2-dimethylcyclopropanecarboxamido)-2-butenoic acid]
inhibition at 100 µM [1, 2]: 98%

Structure (SMILES): C/C=C(\NC(=O)C1CCC1)C(=O)O [Compound 8]
inhibition at 100 µM [1, 2]: 80%

Structure (SMILES): C/C=C(\NC(=O)CCCCCC)C(=O)O [Compound 29]
inhibition at 100 µM [1, 2]: 49%

Structure (SMILES): C/C=C(\NC(=O)C1CC1(C)C)C(=O)O (single isomer, unassigned; (+)) [Compound 2a, (+)-Z-2-(2,2-dimethylcyclopropanecarboxamido)-2-butenoic acid]
inhibition at 100 µM [1, 2]: 100%

Structure (SMILES): C/C=C(\NC(=O)CC(C)C)C(=O)O [Compound 7, Z-2-isovaleramido-2-butenoic acid]
enhancement of systemic antibacterial activity of thienamycin (Staphalococcus aureus): enhanced approximately three-fold | inhibition at 100 µM [1, 2]: 91%

Structure (SMILES): C/C=C(\NC(=O)C(CCC)CCC)C(=O)O [Compound 31, Z-2-di-n-propylacetamido-2-butenoic acid]
inhibition at 100 µM [1, 2]: 13%

Structure (SMILES): CCCCC/C=C(\NC(=O)C1CC1(C)C)C(=O)O (racemic) [Z-2-(2,2-dimethylcyclopropanecarboxamido)-2-octenoic acid]
activity of resolved isomers ([1]; racemate resolved, dextrorotatory isomer has S-configuration): The activity resides in the dextrorotatory isomer

Structure (SMILES): C/C=C(\NC(=O)CCCC)C(=O)O [Compound 23, Z-2-valeramido-2-butenoic acid]
inhibition at 100 µM [1, 2]: 64%

Structure (SMILES): C/C=C(\NC(=O)C1CC1C)C(=O)O (stereo not shown) [Compound 3]
inhibition at 100 µM [1, 2]: 92%

Structure (SMILES): C/C=C(\NC(=O)CCCC1CCCCC1)C(=O)O [Compound 21]
inhibition at 100 µM [1, 2]: 68%

Structure (SMILES): C/C=C(\NC(=O)CCC)C(=O)O [Compound 20, Z-2-butyramido-2-butenoic acid]
inhibition at 100 µM [1, 2]: 69%

Structure (SMILES): C/C=C(\NC(=O)C1CCCC1)C(=O)O [Compound 24]
inhibition at 100 µM [1, 2]: 59%

Structure (SMILES): C/C=C(\NC(=O)CCCCCCC)C(=O)O [Compound 19, Z-2-octanamido-2-butenoic acid]
inhibition at 100 µM [1, 2]: 72%

Structure (SMILES): C/C=C(\NC(=O)CC1CCC1)C(=O)O [Compound 9]
inhibition at 100 µM [1, 2]: 83%

Structure (SMILES): CCCCC/C=C(\NC(=O)C1CC1(Cl)Cl)C(=O)O (stereo not shown) [Compound 12]
Ki [1]: 59 nM

Structure (SMILES): C/C=C(\NC(=O)C1CC1)C(=O)O [Compound 10, Z-2-cyclopropylcarboxamido-2-butenoic acid]
Ki [1]: 9000 nM | inhibition at 100 µM [1, 2]: 97%

Structure (SMILES): C/C=C(\NC(=O)CCC1CCCCC1)C(=O)O [Compound 27]
inhibition at 100 µM [1, 2]: 54%

Structure (SMILES): C/C=C(\NC(=O)C(CC)CCCC)C(=O)O (stereo not shown) [Compound 30, Z-2-(2-Ethylhexanamido)-2-butenoic acid]
inhibition at 100 µM [1, 2]: 33%

Structure (SMILES): C/C=C(\NC(=O)CC(C)(C)C)C(=O)O [Compound 18, Z-2-t-butylacetamido-2-butenoic acid]
inhibition at 100 µM [1, 2]: 75%

Structure (SMILES): C/C=C(\NC(=O)CC(C)CC)C(=O)O (stereo not shown) [Compound 11]
inhibition at 100 µM [1, 2]: 82%

Structure (SMILES): CN(C)C(=N)NCCCCC/C=C(\NC(=O)C1CC1(C)C)C(=O)O (stereo not shown) [Compound 16]
Ki [1]: 890 nM

Structure (SMILES): CC/C=C(\NC(=O)CC(C)C)C(=O)O [Compound 4]
inhibition at 100 µM [1, 2]: 87%

Structure (SMILES): C/C=C(\NC(=O)CC1CC1)C(=O)O [Compound 22]
inhibition at 100 µM [1, 2]: 64%

Structure (SMILES): CC/C=C(\NC(=O)C1CC1(C)C)C(=O)O (stereo not shown) [Compound 1]
% Inhibition at 10^-4 M [1, 2]: 98%

Structure (SMILES): C/C=C(\NC(=O)CCC1CCCC1)C(=O)O [Compound 26]
inhibition at 100 µM [1, 2]: 56%

Structure (SMILES): C/C=C(\NC(=O)CCCCC(C)C)C(=O)O [Compound 25, Z-2-(6-methylheptanamido)-2-butenoic acid]
inhibition at 100 µM [1, 2]: 57%

Further lines, results first:

inhibition at 100 µM [1, 2]: 31%
Structure (SMILES): C/C=C(\NC(=O)C(C)C)C(=O)O [Compound 32]

inhibition at 100 µM [1, 2]: 100%
Structure (SMILES): CCCC/C=C(\NC(=O)C1CC1(C)C)C(=O)O (stereo not shown) [Compound 49]

inhibition at 100 µM [1, 2]: 98%
Structure (SMILES): CC(C)CC/C=C(\NC(=O)C1CC1(C)C)C(=O)O (stereo not shown) [Compound 63]

inhibition at 100 µM [1, 2]: 99%
Structure (SMILES): CC1(C)CC1C(=O)N/C(=C\CCCC(=O)O)C(=O)O (racemic) [Compound 64]

inhibition at 100 µM [1, 2]: 97%
Structure (SMILES): CC(C)C/C=C(\NC(=O)C1CC1(C)C)C(=O)O (stereo not shown) [Compound 48]

Ki [1]: 145 nM | inhibition at 100 µM [1, 2]: 98%
Structure (SMILES): CC1(C)CC1C(=O)N/C(=C\CCC(=O)O)C(=O)O (stereo not shown) [Compound 51]

Ki [1]: 440 nM | inhibition at 100 µM [1, 2]: 98%
Structure (SMILES): CC1(C)CC1C(=O)N/C(=C\Cc1ccccc1)C(=O)O (stereo not shown) [Compound 59]

Ki [1]: 20000 nM | inhibition at 100 µM [1, 2]: 64%
Structure (SMILES): C/C=C(\NC(=O)CCCCCl)C(=O)O [Compound 36, Z-2-(5-chlorovaleramido)-2-butenoic acid]

Ki [1]: 1600 nM | inhibition at 100 µM [1, 2]: 96%
Structure (SMILES): CC(C)/C=C(\NC(=O)C1CC1(C)C)C(=O)O (stereo not shown) [Compound 41]

Ki [1]: 149 nM | inhibition at 100 µM [1, 2]: 98%
Structure (SMILES): CCCCCC/C=C(\NC(=O)C1CC1(C)C)C(=O)O (stereo not shown) [Compound 56]

inhibition at 100 µM [1, 2]: 98%
Structure (SMILES): COCC/C=C(\NC(=O)C1CC1(C)C)C(=O)O (stereo not shown) [Compound 61]

inhibition at 100 µM [1, 2]: 96%
Structure (SMILES): CC1(C)CC1C(=O)N/C(=C\CCS(C)(=O)=O)C(=O)O (stereo not shown) [Compound 55]

inhibition at 100 µM [1, 2]: 88%
Structure (SMILES): C/C=C(\NC(=O)CC(C)CCOC)C(=O)O (stereo not shown) [Compound 34]

inhibition at 100 µM [1, 2]: 98%
Structure (SMILES): CCC/C=C(\NC(=O)C1CC1(C)C)C(=O)O (stereo not shown) [Compound 47]

inhibition at 100 µM [1, 2]: 99%
Structure (SMILES): CSCC/C=C(\NC(=O)C1CC1(C)C)C(=O)O (stereo not shown) [Compound 54]

inhibition at 100 µM [1, 2]: 70%
Structure (SMILES): C/C=C(\NC(=O)CCCCCBr)C(=O)O [Compound 35]

inhibition at 100 µM [1, 2]: 100%
Structure (SMILES): CCCCC/C=C(\NC(=O)C1CC1(C)C)C(=O)O (stereo not shown) [Compound 50]

inhibition at 100 µM [1, 2]: 90%
Structure (SMILES): O=C(O)CC/C=C(\NC(=O)C1CC1)C(=O)O [Compound 33]

inhibition at 100 µM [1, 2]: 98%
Structure (SMILES): CC/C=C(\NC(=O)C1CC1(C)C)C(=O)O (stereo not shown) [Compound 45]

inhibition at 100 µM [1, 2]: 96%
Structure (SMILES): CCCCCCCCCC/C=C(\NC(=O)C1CC1(C)C)C(=O)O (stereo not shown) [Compound 58]

inhibition at 100 µM [1, 2]: 100%
Structure (SMILES): CC1(C)CC1C(=O)N/C(=C\c1ccccc1)C(=O)O (stereo not shown) [Compound 46]

Ki [1]: 92 nM | inhibition at 100 µM [1, 2]: 99%
Structure (SMILES): CCCCCCC/C=C(\NC(=O)C1CC1(C)C)C(=O)O (stereo not shown) [Compound 57]

Ki [1]: 390 nM
Structure (SMILES): CC1(C)CC1C(=O)N/C(=C\CC1CCCO1)C(=O)O (stereo not shown) [Compound 65]

inhibition at 100 µM [1, 2]: 90%
Structure (SMILES): C/C=C(\NC(=O)C1CC1C(C)(C)C)C(=O)O (stereo not shown) [Compound 38]

inhibition at 100 µM [1, 2]: 98%
Structure (SMILES): C/C=C(\NC(=O)C1CC1(CC)CC)C(=O)O (stereo not shown) [Compound 42]

inhibition at 100 µM [1, 2]: 100%
Structure (SMILES): CC1(C)CC1C(=O)N/C(=C\CC1CCCCC1)C(=O)O (stereo not shown) [Compound 52]

inhibition at 100 µM [1, 2]: 95%
Structure (SMILES): C/C=C(\NC(=O)C1CC1(C)C(C)C)C(=O)O (stereo not shown) [Compound 44]

inhibition at 100 µM [1, 2]: 95%
Structure (SMILES): CCCCC/C=C(\NC(=O)CC(C)C)C(=O)O [Compound 39, Z-2-isovaleramido-2-octenoic acid]

inhibition at 100 µM [1, 2]: 96%
Structure (SMILES): C/C=C(\NC(=O)C1CC1CC)C(=O)O (stereo not shown) [Compound 43]

inhibition at 100 µM [1, 2]: 96%
Structure (SMILES): CC1(C)CC1C(=O)N/C(=C\CCc1ccccc1)C(=O)O (stereo not shown) [Compound 53]

inhibition at 100 µM [1, 2]: 72%
Structure (SMILES): C/C=C(\NC(=O)CCCc1ccccc1)C(=O)O [Compound 37]

inhibition at 100 µM [1, 2]: 100%
Structure (SMILES): C/C=C(\NC(=O)C1CC1(C)CC)C(=O)O (stereo not shown) [Compound 40]
